Numbers after ± are expanded uncertainties.
Columns and labels:
[1] = molar heat capacity at constant pressure; xn = mol fraction of the nth substance listed; conditions: Liquid, Flow calorimetry
[2] = molar heat capacity at constant pressure; conditions: Liquid, Flow calorimetry

Cc1ccc(C)c(C)c1 [1,2,4-trimethylbenzene] + CCC(C)O
molar heat capacity at constant pressure [J/K/mol], [1]
Conditions	x2 = 0	x2 = 0.1001	x2 = 0.3	x2 = 0.5298	x2 = 0.6001	x2 = 0.7001	x2 = 0.7997	x2 = 0.9001
293.15 K, 100 kPa	216.2 ± 3	219.6 ± 3.1	221.6 ± 3.1	223.7 ± 3.1	216 ± 3	213 ± 3	206.9 ± 2.9	200.5 ± 2.8
293.15 K, 5000 kPa	215 ± 3	218.1 ± 3.1	220.8 ± 3.1	222.1 ± 3.1	215.3 ± 3	211.7 ± 3	205.2 ± 2.9	198.5 ± 2.8
293.15 K, 10000 kPa	213.3 ± 3	217 ± 3.1	219.6 ± 3.1	220.3 ± 3.1	213.9 ± 3	210.4 ± 3	203.7 ± 2.9	196.8 ± 2.8
293.15 K, 15000 kPa	212.5 ± 3	216.2 ± 3	219 ± 3.1	218.9 ± 3.1	213.2 ± 3	208.5 ± 2.9	201.9 ± 2.8	195.5 ± 2.8
293.15 K, 20000 kPa	210.8 ± 3	215.2 ± 3	218.3 ± 3.1	217.6 ± 3.1	211.7 ± 3	206.9 ± 2.9	200.7 ± 2.8	194.6 ± 2.7
293.15 K, 25000 kPa	209.8 ± 3	214.6 ± 3	217.3 ± 3.1	215.9 ± 3	210.5 ± 3	205.5 ± 2.9	199.7 ± 2.8	193.3 ± 2.7
313.15 K, 100 kPa	222.5 ± 3.1	231.1 ± 3.3	235.8 ± 3.3	234.2 ± 3.3	233.8 ± 3.3	232.1 ± 3.3	226.9 ± 3.2	224.2 ± 3.2
313.15 K, 5000 kPa	221.2 ± 3.1	230.3 ± 3.2	233.7 ± 3.3	232.8 ± 3.3	232.6 ± 3.3	230 ± 3.2	224.8 ± 3.2	221.1 ± 3.1
313.15 K, 10000 kPa	219.6 ± 3.1	229.5 ± 3.2	232.6 ± 3.3	231.9 ± 3.3	230.1 ± 3.2	227.4 ± 3.2	222.4 ± 3.1	218.9 ± 3.1
313.15 K, 15000 kPa	218.5 ± 3.1	228.8 ± 3.2	231.1 ± 3.3	230.9 ± 3.3	229 ± 3.2	225.3 ± 3.2	220.6 ± 3.1	217.3 ± 3.1
313.15 K, 20000 kPa	217.7 ± 3.1	227.7 ± 3.2	229.9 ± 3.2	229.6 ± 3.2	227.2 ± 3.2	223.8 ± 3.2	219.3 ± 3.1	216 ± 3
313.15 K, 25000 kPa	217.1 ± 3.1	226.4 ± 3.2	229.5 ± 3.2	228.2 ± 3.2	225.6 ± 3.2	222.7 ± 3.1	218.1 ± 3.1	214.1 ± 3

CCC(C)O (stereo not drawn) [butan-2-ol]
molar heat capacity at constant pressure [J/K/mol], [2]
Conditions	100 kPa	5000 kPa	10000 kPa	15000 kPa	20000 kPa	25000 kPa
293.15 K	189.1 ± 2.7	187.1 ± 2.6	185.5 ± 2.6	185.2 ± 2.6	183.6 ± 2.6	182.7 ± 2.6
313.15 K	214.9 ± 3	213.1 ± 3	211.1 ± 3	209.4 ± 2.9	207.2 ± 2.9	204.9 ± 2.9

CCC(C)O (stereo not drawn) [butan-2-ol] + Cc1ccc(C)c(C)c1
molar heat capacity at constant pressure [J/K/mol], [1], x1 = 1
Conditions	100 kPa	5000 kPa	10000 kPa	15000 kPa	20000 kPa	25000 kPa
293.15 K	189.1 ± 2.7	187.1 ± 2.6	185.5 ± 2.6	185.2 ± 2.6	183.6 ± 2.6	182.7 ± 2.6
313.15 K	214.9 ± 3	213.1 ± 3	211.1 ± 3	209.4 ± 2.9	207.2 ± 2.9	204.9 ± 2.9

Cc1ccc(C)c(C)c1 [1,2,4-trimethylbenzene] + CCCCO
molar heat capacity at constant pressure [J/K/mol], [1]
Conditions	x2 = 0	x2 = 0.1002	x2 = 0.2327	x2 = 0.3969	x2 = 0.53	x2 = 0.637	x2 = 0.7176	x2 = 0.7975	x2 = 0.8594	x2 = 0.9131
293.15 K, 100 kPa	216.2 ± 3	220 ± 3.1	219.5 ± 3.1	214 ± 3	209.9 ± 3	203.6 ± 2.9	197 ± 2.8	192.5 ± 2.7	186.5 ± 2.6	181.9 ± 2.6
293.15 K, 5000 kPa	215 ± 3	219 ± 3.1	219 ± 3.1	213.4 ± 3	208.8 ± 2.9	203.3 ± 2.9	196 ± 2.8	191.8 ± 2.7	186.3 ± 2.6	181.4 ± 2.6
293.15 K, 10000 kPa	213.3 ± 3	217.3 ± 3.1	218.1 ± 3.1	212.8 ± 3	207.7 ± 2.9	202.4 ± 2.8	194.9 ± 2.7	190.8 ± 2.7	185.1 ± 2.6	181.1 ± 2.5
293.15 K, 15000 kPa	212.5 ± 3	216 ± 3	217.4 ± 3.1	212.1 ± 3	206.3 ± 2.9	202 ± 2.8	194.2 ± 2.7	190.2 ± 2.7	184.1 ± 2.6	180.7 ± 2.5
293.15 K, 20000 kPa	210.8 ± 3	215.4 ± 3	216.9 ± 3.1	211.3 ± 3	205.9 ± 2.9	201.1 ± 2.8	193.3 ± 2.7	189.6 ± 2.7	183.4 ± 2.6	180.3 ± 2.5
293.15 K, 25000 kPa	209.8 ± 3	214.5 ± 3	216.3 ± 3	210.3 ± 3	204.7 ± 2.9	199.9 ± 2.8	192 ± 2.7	188.6 ± 2.7	182.4 ± 2.6	180 ± 2.5
313.15 K, 100 kPa	222.5 ± 3.1	230.5 ± 3.2	231.1 ± 3.3	230 ± 3.2	224.9 ± 3.2	220.4 ± 3.1	214.4 ± 3	210.3 ± 3	204.5 ± 2.9	200.7 ± 2.8
313.15 K, 5000 kPa	221.2 ± 3.1	229.4 ± 3.2	230.1 ± 3.2	228.9 ± 3.2	223 ± 3.1	218.9 ± 3.1	212.6 ± 3	209.1 ± 2.9	203.7 ± 2.9	199.4 ± 2.8
313.15 K, 10000 kPa	219.6 ± 3.1	228.5 ± 3.2	229.8 ± 3.2	227.4 ± 3.2	222.3 ± 3.1	217.6 ± 3.1	211.5 ± 3	208.6 ± 2.9	203.3 ± 2.9	198.8 ± 2.8
313.15 K, 15000 kPa	218.5 ± 3.1	227.3 ± 3.2	228.5 ± 3.2	226.4 ± 3.2	220.5 ± 3.1	216.5 ± 3	210.2 ± 3	207.8 ± 2.9	202.6 ± 2.9	197.7 ± 2.8
313.15 K, 20000 kPa	217.7 ± 3.1	225.8 ± 3.2	227.3 ± 3.2	225.4 ± 3.2	219.2 ± 3.1	215.4 ± 3	209.3 ± 2.9	206.4 ± 2.9	202 ± 2.8	196.6 ± 2.8
313.15 K, 25000 kPa	217.1 ± 3.1	225.5 ± 3.2	227 ± 3.2	224.3 ± 3.2	218.4 ± 3.1	213.6 ± 3	208.1 ± 2.9	206.1 ± 2.9	201.3 ± 2.8	196 ± 2.8

Cc1ccc(C)c(C)c1 [1,2,4-trimethylbenzene]
molar heat capacity at constant pressure [J/K/mol], [2]
Conditions	100 kPa	5000 kPa	10000 kPa	15000 kPa	20000 kPa	25000 kPa
293.15 K	216.2 ± 3	215 ± 3	213.3 ± 3	212.5 ± 3	210.8 ± 3	209.8 ± 3
313.15 K	222.5 ± 3.1	221.2 ± 3.1	219.6 ± 3.1	218.5 ± 3.1	217.7 ± 3.1	217.1 ± 3.1
333.15 K	229.2 ± 3.2	227.9 ± 3.2	227.1 ± 3.2	225.9 ± 3.2	224.8 ± 3.2	223.5 ± 3.1

From the NIST ThermoML archive (doi:10.1016/j.jct.2017.03.006)
